Here are results for one compound from PMC5218480 (PLoS ONE, 2017).

In this test the test system is MV-4-11 cells. The test is described as follows: Gene expression microarray analysis (Affymetrix PrimeView) and GSEA. In kind it is cell-based, human. The note with it: gene C12orf56, chromosome 12 open reading frame 56; Azacitidine 1 mM; LIST F.

Take `Nc1ncn([C@@H]2O[C@H](CO)[C@@H](O)[C@H]2O)c(=O)n1` [azacitidine]: the “RFU, C12orf56 (ProbeSet 11735607_a_at)” value is reported as 185.59 RFU.
